In one data set the test system is Mtb strain mc^2-7000. The experiment in a line: microbe, parasite or virus in culture. The format is cell-based, Mycobacterium tuberculosis. Particulars: 6 days incubation at 37° C., resazurin, read on the 7th day. In general terms: Alamar Blue is a resazurin reagent that responds to reducing activity.
In the next data set the target is Mtb AccD6 (Mycobacterium tuberculosis, UniProt P9WQH5). The data set can be described thus: biochemical. It counts as biochemical. The following applies: for pIC50 / IC50: 300 μM malonyl-CoA, inhibitor 10 μM to 2000 μM; for pIC50: read-out: IC50; for inhibition at 20 µM: read-out: inhibition at 20 uM.
[1] abbreviates: Mycobacterium tuberculosis, 144 h, read-out: MIC.

Each structure is given as a SMILES string. pIC50: −log10 of the molar value. Converted amounts (≈) assume the structure as drawn. Like-named read-outs stand apart in the source and are kept apart here. Bounds are passed on as bounds.

Mtb AccD6, sequence (P9WQH5 whole entry, looked up): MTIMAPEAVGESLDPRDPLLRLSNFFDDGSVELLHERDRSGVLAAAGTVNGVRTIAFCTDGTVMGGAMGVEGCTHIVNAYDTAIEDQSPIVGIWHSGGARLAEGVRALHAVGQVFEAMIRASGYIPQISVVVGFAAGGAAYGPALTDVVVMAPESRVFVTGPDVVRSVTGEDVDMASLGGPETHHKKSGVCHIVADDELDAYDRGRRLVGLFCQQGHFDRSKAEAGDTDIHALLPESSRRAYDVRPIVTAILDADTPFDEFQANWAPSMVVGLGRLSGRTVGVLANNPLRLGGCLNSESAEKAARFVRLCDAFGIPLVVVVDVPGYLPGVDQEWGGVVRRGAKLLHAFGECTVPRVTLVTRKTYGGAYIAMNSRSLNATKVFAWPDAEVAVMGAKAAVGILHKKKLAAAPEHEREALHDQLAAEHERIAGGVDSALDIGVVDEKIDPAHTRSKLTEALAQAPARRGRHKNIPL

On to `CC(C(=O)O)c1ccc(Oc2nc3ccc(F)cc3s2)cc1` (stereo not drawn) [NZ-329, 2-{4-[(6-fluoro-1,3-benzothiazol-2-yl)oxy]phenyl}propanoic acid], for which the “concentrations at which not toxic, s. cerevisiae cytotoxicity” value in the data set with S. cerevisiae is at least 100 µM. Besides, the MIC in the data set on Mtb strain mc^2-7000 (setting [1]) was 12 µM (≈ 3.81 µg/mL). For the same compound, the “concentrations at which not toxic, human fibroblast cytotoxicity” value in the data set on human fibroblast was at least 100 µM. Besides, the pIC50 on Mtb AccD6 is 6.43.
Consider `COc1ccc2nc(Oc3ccc(C(C)C(=O)O)cc3)sc2c1` (stereo not drawn) [NZ-334, 2-{4-[(6-methoxy-1,3-benzothiazol-2-yl)oxy]phenyl}propanoic acid], for which the “concentrations at which not toxic, s. cerevisiae cytotoxicity” value with S. cerevisiae was at least 100 µM. In addition, the MIC in the data set with Mtb strain mc^2-7000 (setting [1]) was found to be 25 µM (≈ 8.23 µg/mL). Also, the “concentrations at which not toxic, human fibroblast cytotoxicity” value with human fibroblast is at least 100 µM. On Mtb AccD6, the pIC50 is 5.00.
Consider `O=C(O)C(O)c1ccc(Oc2nc3ccc(Cl)cc3s2)cc1` (stereo not drawn) [NZ-337, 2-{4-[(6-chloro-1,3-benzothiazol-2-yl)oxy]phenyl}-2-hydroxyacetic acid], for which the “concentrations at which not toxic, s. cerevisiae cytotoxicity” value in the data set on S. cerevisiae was at least 100 µM. The MIC in the data set on Mtb strain mc^2-7000 (setting [1]) was 25 µM (≈ 8.39 µg/mL). Moreover, the “concentrations at which not toxic, human fibroblast cytotoxicity” value with human fibroblast is at least 100 µM. The pIC50 on Mtb AccD6 was 5.64.
For `COc1ccc2nc(Oc3ccc(NC(=O)NC(C)C)cc3)sc2c1` [NZ-361, 1-{4-[(6-methoxy-1,3-benzothiazol-2-yl)oxy]phenyl}-3-(propan-2-yl)urea], the “concentrations at which not toxic, s. cerevisiae cytotoxicity” value in the data set on S. cerevisiae was at least 100 µM. Also, the MIC with Mtb strain mc^2-7000 (setting [1]) was determined as 3.2 µM (≈ 1.14 µg/mL). In addition, the “concentrations at which not toxic, human fibroblast cytotoxicity” value in the data set on human fibroblast is at least 100 µM. Also, the inhibition at 20 µM at Mtb AccD6 was found to be 19%.
Regarding `CC(C)NC(=O)Nc1ccc(Oc2nc3ccc(O)cc3s2)cc1` [NZ-362, 1-{4-[(6-hydroxy-1,3-benzothiazol-2-yl)oxy]phenyl}-3-(propan-2-yl)urea], in the data set with S. cerevisiae, the “concentrations at which not toxic, s. cerevisiae cytotoxicity” value was at least 100 µM. The MIC with Mtb strain mc^2-7000 (setting [1]) came out at 6.5 µM (≈ 2.23 µg/mL). Besides, the “concentrations at which not toxic, human fibroblast cytotoxicity” value in the data set on human fibroblast is at least 100 µM. Besides, at Mtb AccD6, the inhibition at 20 µM is 20%.
In the case of `CC(C(=O)N1CCNCC1)c1ccc(Oc2nc3ccc(Cl)cc3s2)cc1` (stereo not drawn) [NZ-364, 2-{4-[(6-chloro-1,3-benzothiazol-2-yl)oxy]phenyl}-1-(piperazin-1-yl)propan-1-one], the “concentrations at which not toxic, s. cerevisiae cytotoxicity” value in the data set on S. cerevisiae was at least 100 µM. In addition, the MIC in the data set on Mtb strain mc^2-7000 (setting [1]) was 1.34 µM (≈ 0.539 µg/mL). The “concentrations at which not toxic, human fibroblast cytotoxicity” value in the data set with human fibroblast was at least 100 µM. Further, the inhibition at 20 µM at Mtb AccD6 came to 20%.
As for `CC(C(=O)N1CCOCC1)c1ccc(Oc2nc3ccc(Cl)cc3s2)cc1` (stereo not drawn) [NZ-365, 2-{4-[(6-chloro-1,3-benzothiazol-2-yl)oxy]phenyl}-1-(morpholin-4-yl)propan-1-one], the “concentrations at which not toxic, s. cerevisiae cytotoxicity” value in the data set with S. cerevisiae was 50 to 100 µM. Also, the MIC in the data set on Mtb strain mc^2-7000 (setting [1]) was 18.9 µM (≈ 7.61 µg/mL). Besides, the “concentrations at which not toxic, human fibroblast cytotoxicity” value with human fibroblast was at least 100 µM. Besides, the pIC50 on Mtb AccD6 is 5.21.
Take `CC(C(=O)N1CCN(C)CC1)c1ccc(Oc2nc3ccc(Cl)cc3s2)cc1` (stereo not drawn) [NZ-366, 2-{4-[(6-chloro-1,3-benzothiazol-2-yl)oxy]phenyl}-1-(4-methylpiperazin-1-yl)propan-1-one]: in the data set with S. cerevisiae, the “concentrations at which not toxic, s. cerevisiae cytotoxicity” value is 25 to 50 µM. The MIC with Mtb strain mc^2-7000 (setting [1]) is 0.56 µM (≈ 0.233 µg/mL). In addition, the “concentrations at which not toxic, human fibroblast cytotoxicity” value in the data set on human fibroblast was 25 to 50 µM. Also, the pIC50 on Mtb AccD6 was 5.31.
Turning to `CC(C(=O)N(C)C)c1ccc(Oc2nc3ccc(Cl)cc3s2)cc1` (stereo not drawn) [NZ-368, 2-{4-[(6-chloro-1,3-benzothiazol-2-yl)oxy]phenyl}-N,N-dimethylpropanamide], the “concentrations at which not toxic, s. cerevisiae cytotoxicity” value in the data set with S. cerevisiae lay within 25 to 50 µM. In addition, the MIC in the data set with Mtb strain mc^2-7000 (setting [1]) was determined as 2.07 µM (≈ 0.747 µg/mL). In addition, the “concentrations at which not toxic, human fibroblast cytotoxicity” value in the data set with human fibroblast was at least 100 µM. In addition, on Mtb AccD6, the pIC50 was 5.44.
Take `CC(C(=O)NCCO)c1ccc(Oc2nc3ccc(Cl)cc3s2)cc1` (stereo not drawn) [NZ-370, 2-{4-[(6-chloro-1,3-benzothiazol-2-yl)oxy]phenyl}-N-(2-hydroxyethyl)propanamide]: the “concentrations at which not toxic, s. cerevisiae cytotoxicity” value in the data set on S. cerevisiae is at least 100 µM. Moreover, in the data set on Mtb strain mc^2-7000 (setting [1]), the MIC worked out at 1.8 µM (≈ 0.678 µg/mL). Also, the “concentrations at which not toxic, human fibroblast cytotoxicity” value in the data set with human fibroblast was at least 100 µM. For the same compound, at Mtb AccD6, the pIC50 was 6.00.
Turning to `CC(C(=O)NC(CO)CO)c1ccc(Oc2nc3ccc(Cl)cc3s2)cc1` (stereo not drawn) [NZ-371, 2-{4-[(6-chloro-1,3-benzothiazol-2-yl)oxy]phenyl}-N-(1,3-dihydroxypropan-2-yl)propanamide], the “concentrations at which not toxic, s. cerevisiae cytotoxicity” value with S. cerevisiae is at least 100 µM. Besides, the MIC with Mtb strain mc^2-7000 (setting [1]) came to 20 µM (≈ 8.13 µg/mL). Also, the “concentrations at which not toxic, human fibroblast cytotoxicity” value in the data set with human fibroblast was at least 100 µM. For the same compound, the pIC50 on Mtb AccD6 is 6.07.
Consider `CC(C)NC(=O)Nc1ccc(Oc2nc3cc(F)ccc3s2)cc1` [NZ-373, 1-{4-[(5-fluoro-1,3-benzothiazol-2-yl)oxy]phenyl}-3-(propan-2-yl)urea], for which, in the data set on S. cerevisiae, the “concentrations at which not toxic, s. cerevisiae cytotoxicity” value was at least 100 µM. For the same compound, in the data set with Mtb strain mc^2-7000, the MIC entry is “Not Active”. In the data set with human fibroblast, the “concentrations at which not toxic, human fibroblast cytotoxicity” value is at least 100 µM. Moreover, the pIC50 on Mtb AccD6 was 5.78.
Turning to `CC(C)NC(=O)Nc1ccc(Oc2nc3c(F)cccc3s2)cc1` [NZ-374, 1-{4-[(4-fluoro-1,3-benzothiazol-2-yl)oxy]phenyl}-3-(propan-2-yl)urea], the “concentrations at which not toxic, s. cerevisiae cytotoxicity” value in the data set on S. cerevisiae was at least 100 µM. In addition, the MIC entry against Mtb strain mc^2-7000 is on record as “Not Active”. The “concentrations at which not toxic, human fibroblast cytotoxicity” value in the data set on human fibroblast was at least 100 µM. Further, at Mtb AccD6, the IC50 entry is “Not Active”.
For the compound `CC(C)NC(=O)Nc1ccc(Oc2nc3cc(Cl)ccc3s2)cc1` [NZ-376, 1-{4-[(5-chloro-1,3-benzothiazol-2-yl)oxy]phenyl}-3-(propan-2-yl)urea], the “concentrations at which not toxic, s. cerevisiae cytotoxicity” value in the data set with S. cerevisiae was at least 100 µM. Moreover, the MIC entry against Mtb strain mc^2-7000 was “Not Active”. The “concentrations at which not toxic, human fibroblast cytotoxicity” value in the data set on human fibroblast is at least 100 µM. In addition, the pIC50 at Mtb AccD6 was 6.06.
For the compound `CC(C)NC(=O)Nc1ccc(Oc2nc3ccc(C#N)cc3s2)cc1` [NZ-377, 1-{4-[(6-cyano-1,3-benzothiazol-2-yl)oxy]phenyl}-3-(propan-2-yl)urea], in the data set with S. cerevisiae, the “concentrations at which not toxic, s. cerevisiae cytotoxicity” value is at least 100 µM. Also, the MIC result in the data set with Mtb strain mc^2-7000 is on record as “Not Active”. In addition, the “concentrations at which not toxic, human fibroblast cytotoxicity” value with human fibroblast is at least 100 µM. Also, the pIC50 on Mtb AccD6 is 5.10.
In the case of `CCOC(=O)c1ccc2nc(Oc3ccc(NC(=O)NC(C)C)cc3)sc2c1` [NZ-378, ethyl 2-(4-{[(propan-2-yl)carbamoyl]amino}phenoxy)-1,3-benzothiazole-6-carboxylate], the “concentrations at which not toxic, s. cerevisiae cytotoxicity” value with S. cerevisiae is at least 100 µM. Also, the MIC in the data set with Mtb strain mc^2-7000 (setting [1]) amounted to 2.2 µM (≈ 0.879 µg/mL). In addition, in the data set with human fibroblast, the “concentrations at which not toxic, human fibroblast cytotoxicity” value is at least 100 µM. On Mtb AccD6, the IC50 result is reported as “Not Active”.
Regarding `CC(C)NC(=O)Nc1ccc(Oc2nc3ccc(C(F)(F)F)cc3s2)cc1` [NZ-379, 3-(propan-2-yl)-1-(4-{[6-(trifluoromethyl)-1,3-benzothiazol-2-yl]oxy}phenyl)urea], in the data set on S. cerevisiae, the “concentrations at which not toxic, s. cerevisiae cytotoxicity” value is at least 100 µM. The MIC entry against Mtb strain mc^2-7000 was “Not Active”. In addition, the “concentrations at which not toxic, human fibroblast cytotoxicity” value in the data set with human fibroblast is at least 100 µM. Also, the IC50 entry against Mtb AccD6 is on record as “Not Active”.
Regarding `CC(C)NC(=O)Nc1ccc(Oc2nc3ccc(S(C)(=O)=O)cc3s2)cc1` [NZ-380, 1-{4-[(6-methanesulfonyl-1,3-benzothiazol-2-yl)oxy]phenyl}-3-(propan-2-yl)urea], the “concentrations at which not toxic, s. cerevisiae cytotoxicity” value in the data set on S. cerevisiae was at least 100 µM. For the same compound, the MIC in the data set with Mtb strain mc^2-7000 (setting [1]) is 3.4 µM (≈ 1.38 µg/mL). Besides, in the data set with human fibroblast, the “concentrations at which not toxic, human fibroblast cytotoxicity” value is at least 100 µM. For the same compound, the IC50 result against Mtb AccD6 is “Not Active”.

A word on the pIC50: it is the IC50 on a negative log10 scale, so that one unit is a factor of ten. The term inhibition denotes the drop in the measured response relative to a control, in per cent.
